Results published in ChEMBL document CHEMBL5653615 (J Biol Chem, 2013).

Tests used:
[1] = biological target: T1, Ephrin type-A receptor 1 (Homo sapiens) (UniProt P21709); assay: Inhibition of human EPHA1 at 1.82 nM by HotSpot assay relative to control
T1 sequence (whole entry): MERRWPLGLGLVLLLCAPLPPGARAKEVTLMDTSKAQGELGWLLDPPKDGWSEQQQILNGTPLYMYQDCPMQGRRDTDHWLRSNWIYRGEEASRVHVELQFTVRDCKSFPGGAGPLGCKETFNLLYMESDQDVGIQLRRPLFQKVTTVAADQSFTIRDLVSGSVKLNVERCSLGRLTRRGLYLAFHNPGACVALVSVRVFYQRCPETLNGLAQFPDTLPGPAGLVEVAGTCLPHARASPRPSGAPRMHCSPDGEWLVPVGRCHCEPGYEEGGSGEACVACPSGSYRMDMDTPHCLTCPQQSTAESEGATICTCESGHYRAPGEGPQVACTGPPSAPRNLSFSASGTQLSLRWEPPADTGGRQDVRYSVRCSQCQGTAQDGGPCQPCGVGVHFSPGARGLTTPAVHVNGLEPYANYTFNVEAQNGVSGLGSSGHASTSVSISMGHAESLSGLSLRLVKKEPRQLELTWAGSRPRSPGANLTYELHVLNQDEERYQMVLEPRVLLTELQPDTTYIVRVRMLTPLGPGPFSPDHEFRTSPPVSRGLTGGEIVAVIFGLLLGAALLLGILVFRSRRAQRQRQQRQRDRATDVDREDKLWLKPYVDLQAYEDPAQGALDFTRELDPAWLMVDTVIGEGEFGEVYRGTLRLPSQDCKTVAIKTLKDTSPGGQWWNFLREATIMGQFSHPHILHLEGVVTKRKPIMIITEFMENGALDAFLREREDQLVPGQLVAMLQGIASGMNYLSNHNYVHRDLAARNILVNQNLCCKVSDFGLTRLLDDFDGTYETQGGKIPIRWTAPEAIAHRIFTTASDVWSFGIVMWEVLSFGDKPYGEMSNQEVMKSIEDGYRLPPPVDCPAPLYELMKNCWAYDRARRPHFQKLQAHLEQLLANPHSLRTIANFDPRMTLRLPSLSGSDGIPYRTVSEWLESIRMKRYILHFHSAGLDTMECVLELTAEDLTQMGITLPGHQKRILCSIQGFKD

[2] = biological target: T2, Tyrosine-protein kinase ZAP-70 (Homo sapiens) (UniProt P43403); assay: Inhibition of human ZAP70 at 1.82 nM by HotSpot assay relative to control
T2 sequence (whole entry): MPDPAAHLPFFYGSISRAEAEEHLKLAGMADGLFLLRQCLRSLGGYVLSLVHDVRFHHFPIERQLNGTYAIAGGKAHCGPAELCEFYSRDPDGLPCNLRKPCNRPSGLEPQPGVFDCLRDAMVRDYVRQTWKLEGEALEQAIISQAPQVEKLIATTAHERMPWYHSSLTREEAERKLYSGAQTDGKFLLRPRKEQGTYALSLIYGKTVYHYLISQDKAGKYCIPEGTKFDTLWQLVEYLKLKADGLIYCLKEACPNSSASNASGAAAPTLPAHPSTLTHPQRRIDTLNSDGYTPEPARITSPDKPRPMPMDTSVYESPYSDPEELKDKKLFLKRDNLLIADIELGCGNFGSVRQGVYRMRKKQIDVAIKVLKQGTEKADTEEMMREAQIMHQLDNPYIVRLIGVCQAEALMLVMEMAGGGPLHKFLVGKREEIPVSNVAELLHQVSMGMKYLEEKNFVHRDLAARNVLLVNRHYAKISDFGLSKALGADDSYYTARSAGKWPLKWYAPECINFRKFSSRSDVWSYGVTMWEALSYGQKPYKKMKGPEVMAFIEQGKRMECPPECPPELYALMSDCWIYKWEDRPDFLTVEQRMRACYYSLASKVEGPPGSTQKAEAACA

[3] = biological target: T3, cAMP-dependent protein kinase catalytic subunit PRKX (Homo sapiens) (UniProt P51817); assay: Inhibition of human PRKX at 1.82 nM by HotSpot assay relative to control
T3 sequence (whole entry): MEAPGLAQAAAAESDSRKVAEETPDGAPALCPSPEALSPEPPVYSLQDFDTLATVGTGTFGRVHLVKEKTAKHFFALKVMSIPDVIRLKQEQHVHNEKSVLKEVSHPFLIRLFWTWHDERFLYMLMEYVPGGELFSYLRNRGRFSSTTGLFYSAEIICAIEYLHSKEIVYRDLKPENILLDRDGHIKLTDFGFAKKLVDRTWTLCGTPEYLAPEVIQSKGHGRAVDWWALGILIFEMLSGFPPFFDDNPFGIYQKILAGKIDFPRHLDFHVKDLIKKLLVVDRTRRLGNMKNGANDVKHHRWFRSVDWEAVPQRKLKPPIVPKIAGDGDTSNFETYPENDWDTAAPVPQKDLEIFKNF

[4] = biological target: Vascular endothelial growth factor receptor 2 (Homo sapiens) (UniProt P35968); assay: Inhibition of human KDR at 1.82 nM by HotSpot assay relative to control
Vascular endothelial growth factor receptor 2 (Homo sapiens), sequence (P35968 whole entry, canonical isoform): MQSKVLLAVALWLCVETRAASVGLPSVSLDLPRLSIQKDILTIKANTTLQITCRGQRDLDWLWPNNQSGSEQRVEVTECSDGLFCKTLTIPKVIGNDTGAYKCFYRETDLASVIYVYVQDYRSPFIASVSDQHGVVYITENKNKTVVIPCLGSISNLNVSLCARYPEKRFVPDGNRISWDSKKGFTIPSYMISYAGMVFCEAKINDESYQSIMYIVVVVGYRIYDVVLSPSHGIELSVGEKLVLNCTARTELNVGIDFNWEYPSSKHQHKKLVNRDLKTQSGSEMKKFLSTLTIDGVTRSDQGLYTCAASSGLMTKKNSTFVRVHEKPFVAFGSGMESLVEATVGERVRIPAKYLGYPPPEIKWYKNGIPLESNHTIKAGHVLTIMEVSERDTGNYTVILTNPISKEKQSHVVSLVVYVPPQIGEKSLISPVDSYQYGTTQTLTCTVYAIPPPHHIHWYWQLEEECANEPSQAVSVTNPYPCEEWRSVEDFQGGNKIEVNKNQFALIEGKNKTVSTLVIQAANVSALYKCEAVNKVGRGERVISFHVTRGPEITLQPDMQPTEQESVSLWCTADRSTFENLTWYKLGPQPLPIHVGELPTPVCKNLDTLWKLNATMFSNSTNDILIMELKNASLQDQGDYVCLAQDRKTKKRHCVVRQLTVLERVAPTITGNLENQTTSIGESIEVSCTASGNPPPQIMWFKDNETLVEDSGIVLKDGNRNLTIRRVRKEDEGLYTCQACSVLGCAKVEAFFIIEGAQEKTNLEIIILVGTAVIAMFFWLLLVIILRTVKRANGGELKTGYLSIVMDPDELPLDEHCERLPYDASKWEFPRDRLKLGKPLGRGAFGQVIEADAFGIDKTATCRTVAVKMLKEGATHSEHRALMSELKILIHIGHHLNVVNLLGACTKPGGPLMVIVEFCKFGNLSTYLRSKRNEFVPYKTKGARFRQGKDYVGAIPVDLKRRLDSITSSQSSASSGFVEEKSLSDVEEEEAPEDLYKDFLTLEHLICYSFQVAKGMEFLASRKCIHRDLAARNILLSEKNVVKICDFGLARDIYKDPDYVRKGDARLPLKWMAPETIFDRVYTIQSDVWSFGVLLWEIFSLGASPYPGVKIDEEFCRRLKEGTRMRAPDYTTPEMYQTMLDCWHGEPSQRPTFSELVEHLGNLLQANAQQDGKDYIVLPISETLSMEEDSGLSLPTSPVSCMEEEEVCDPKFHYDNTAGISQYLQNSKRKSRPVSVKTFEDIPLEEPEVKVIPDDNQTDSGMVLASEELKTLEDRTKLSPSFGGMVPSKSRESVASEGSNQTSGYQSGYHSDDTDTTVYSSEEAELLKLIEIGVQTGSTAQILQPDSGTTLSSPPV

[5] = biological target: Casein kinase I isoform gamma-3 (Homo sapiens) (UniProt Q9Y6M4); assay: Inhibition of human CK1g3 at 1.82 nM by HotSpot assay relative to control
Casein kinase I isoform gamma-3 (Homo sapiens), sequence (Q9Y6M4 whole entry, looked up, canonical isoform): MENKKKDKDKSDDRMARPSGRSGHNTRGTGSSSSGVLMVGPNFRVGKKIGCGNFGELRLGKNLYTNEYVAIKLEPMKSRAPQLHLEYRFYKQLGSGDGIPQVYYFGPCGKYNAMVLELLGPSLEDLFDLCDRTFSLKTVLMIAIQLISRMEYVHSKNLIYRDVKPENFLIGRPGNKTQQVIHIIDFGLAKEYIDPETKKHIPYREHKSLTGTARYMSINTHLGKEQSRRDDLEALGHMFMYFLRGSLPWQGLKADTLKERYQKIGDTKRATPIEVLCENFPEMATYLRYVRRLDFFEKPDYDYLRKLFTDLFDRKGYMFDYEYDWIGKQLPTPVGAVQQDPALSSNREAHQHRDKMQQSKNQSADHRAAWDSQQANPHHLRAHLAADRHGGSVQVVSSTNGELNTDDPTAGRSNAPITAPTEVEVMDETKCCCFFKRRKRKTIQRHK

[6] = biological target: CDK1/Cyclin A (Homo sapiens) (UniProt P06493+P20248); assay: Inhibition of human CDK1/cyclin A at 18.6 nM by HotSpot assay relative to control; assay type: protein-complex assay
CDK1/Cyclin A (Homo sapiens), sequence (P06493 whole entry, looked up): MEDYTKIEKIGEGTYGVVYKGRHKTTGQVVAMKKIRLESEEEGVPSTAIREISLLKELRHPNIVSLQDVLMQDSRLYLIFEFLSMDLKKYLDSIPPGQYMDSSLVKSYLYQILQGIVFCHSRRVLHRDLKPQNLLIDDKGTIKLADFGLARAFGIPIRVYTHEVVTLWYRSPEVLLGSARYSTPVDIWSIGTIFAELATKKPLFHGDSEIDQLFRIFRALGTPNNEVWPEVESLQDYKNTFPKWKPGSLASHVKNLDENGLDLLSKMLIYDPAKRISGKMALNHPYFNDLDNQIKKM
CDK1/Cyclin A (Homo sapiens), sequence (P20248 whole entry, looked up): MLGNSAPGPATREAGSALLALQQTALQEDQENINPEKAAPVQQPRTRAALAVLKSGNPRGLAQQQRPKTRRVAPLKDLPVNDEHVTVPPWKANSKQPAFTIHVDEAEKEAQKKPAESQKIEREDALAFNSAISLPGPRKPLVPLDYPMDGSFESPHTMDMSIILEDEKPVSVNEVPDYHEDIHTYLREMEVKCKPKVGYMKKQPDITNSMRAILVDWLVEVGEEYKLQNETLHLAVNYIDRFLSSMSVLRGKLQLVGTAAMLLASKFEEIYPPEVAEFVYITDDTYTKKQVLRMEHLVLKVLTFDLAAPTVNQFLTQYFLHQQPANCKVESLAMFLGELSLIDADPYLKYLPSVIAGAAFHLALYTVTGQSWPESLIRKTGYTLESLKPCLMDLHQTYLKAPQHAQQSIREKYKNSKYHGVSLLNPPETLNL

[7] = biological target: Calcium/calmodulin-dependent protein kinase type 1 (Homo sapiens) (UniProt Q14012); assay: Inhibition of human CAMK1a at 18.6 nM by HotSpot assay relative to control
Calcium/calmodulin-dependent protein kinase type 1 (Homo sapiens), sequence (Q14012 whole entry, looked up): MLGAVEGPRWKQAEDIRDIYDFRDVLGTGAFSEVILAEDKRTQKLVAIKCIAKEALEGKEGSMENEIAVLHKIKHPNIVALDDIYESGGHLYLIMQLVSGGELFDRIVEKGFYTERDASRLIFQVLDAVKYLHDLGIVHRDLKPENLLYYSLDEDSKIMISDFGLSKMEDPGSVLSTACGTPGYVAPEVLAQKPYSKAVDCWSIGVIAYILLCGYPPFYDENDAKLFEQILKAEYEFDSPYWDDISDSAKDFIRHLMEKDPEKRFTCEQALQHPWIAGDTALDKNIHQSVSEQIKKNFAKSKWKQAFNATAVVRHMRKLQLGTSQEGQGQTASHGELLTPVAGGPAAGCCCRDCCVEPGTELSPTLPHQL

SMILES | inhibition [1] [%] | inhibition [2] [%] | inhibition [3] [%] | inhibition [4] [%] | inhibition [5] [%] | inhibition [6] [%] | inhibition [7] [%]
C[C@@]1(C(=O)Nc2ccc(F)nc2)CCCN1c1nc(Nc2cc(C3CC3)n[nH]2)c2cccn2n1 | -4.67 | -2.24 | 0.19 | 3.67 | 0.91 |  | 
C[C@]1(O)C[C@@H](c2nc(-c3ccc4ccc(-c5ccccc5)nc4c3)c3c(N)nccn32)C1 |  |  |  |  |  | 1.16 | 9.19
